Values joined by “and” are separate entries in the source; they are usually repeats but may differ in a detail not shown here. Equal entries are not always repeated. Where two headings read alike, the source gives them in different places.
Assay: pharmacokinetics, plasma and brain, after IP dose in mice
Format: in vivo
Conditions: male C57BL/6 mice; for concentration at 0.083 hr / concentration at 0.25 hr / concentration at 0.5 hr / concentration at 1 hr / concentration at 2 hr / concentration at 3 hr / concentration at 4 hr / concentration at 8 hr: male, C57BL/6, mouse, ip, 50 mg/kg; for half-life: read-out: Terminal t1/2 (converted)
Procedure: Each time point is […], with 11 time points=33 animals. Each time point was done in triplicate (N=3). The brain and plasma from each animal was analyzed.
Formulation preparation: • IP: 5% DMAC+5% Solutol HS15+90% Saline • 50 mg/kg, 10 mL/kg
Analytical method: • Instrument: LCMSMS-6 (Agilent 6410, triple quadrupole) • Matrix: Mouse plasma and brain homogenate • Analyte(s): NCGC00248435-03 • Internal standard(s): Diclofenac • MS conditions: Positive, ESI • MRM detection • NCGC00248435-03: [M+H]+m/z 400.3→72.2 • Diclofenac: [M+H]+m/z 296.0→214.0
For plasma samples: An aliquot of 30 μL plasma sample was added with 100 μL ACN (including Diclofenac, 50 ng/mL) for protein precipitation. The mixture was vortexed for 2 min and centrifuged at 12000 rpm for 5 min. The 8 μL supernatant was injected into LC-MS/MS for analysis.
For brain samples: Brain sample was homogenized for 2 min with 3 volumes (v/w) of homogenizing solution. An aliquot of 30 μL brain homogenate sample was added with 100 μL ACN (including Diclofenac, 50 ng/mL) for protein precipitation. The mixture was vortexed for 2 min and centrifuged at 12000 rpm for 5 min. The 8 μL supernatant was injected into LC-MS/MS for analysis.
The IP dosing solution was prepared in 5% DMAC+5% SolutolHS15+90% Saline. Brain was homogenized with 3 volumes (v/w) of PBS (pH7.4) and then analyzed with LC-MS/MS. The Brain concentration was corrected with a dilution factor of 4 as following: Brain concentration=Brain homogenate conc.×4, assuming 1 g wet brain equals to 1 mL. BQL=Below quantifiable limit of 1 ng/mL for NCGC00248435-03 in male C57BL/6 plasma and brain homogenate samples. NA=Not available.

CC/C=C\C/C=C\C/C=C\C/C=C\C/C=C\C/C=C\CCC(=O)NCC(C)(C)O [Compound 1, (4Z,7Z,10Z,13Z,16Z,19Z)—N-(2-hydroxy-2-methylpropyl)docosa-4,7,10,13,16,19-hexaenamide]
clinical observation post dose (IP 50 mg/kg, all animals): Slight mobility reduction | duration of mobility reduction post dose (IP 50 mg/kg, all animals): 1 h | brain concentration Dose Normalized Mean (brain, 0.083 hr, IP 50 mg/kg): 0.024 | brain Concentration Individual (brain, 0.083 hr, IP 50 mg/kg, 3 animals, listed as NCGC00248435-03, 50 mg/kg): 310 ng/g and 551 ng/g | brain concentration Dose Normalized Mean (brain, 0.25 hr, IP 50 mg/kg): 0.054 | brain Concentration Individual (brain, 0.25 hr, IP 50 mg/kg, 3 animals, listed as NCGC00248435-03, 50 mg/kg): 1081 ng/g and 1330 ng/g | brain concentration Dose Normalized Mean (brain, 0.5 hr, IP 50 mg/kg): 0.236 | brain Concentration Individual (brain, 0.5 hr, IP 50 mg/kg, 3 animals, listed as NCGC00248435-03, 50 mg/kg): 5013 ng/g and 3992 ng/g | brain concentration Dose Normalized Mean (brain, 1 hr, IP 50 mg/kg): 0.152 | brain Concentration Individual (brain, 1 hr, IP 50 mg/kg, 3 animals, listed as NCGC00248435-03, 50 mg/kg): 2086 ng/g and 3367 ng/g | brain concentration Dose Normalized Mean (brain, 2 hr, IP 50 mg/kg): 0.089 | brain Concentration Individual (brain, 2 hr, IP 50 mg/kg, 3 animals, listed as NCGC00248435-03, 50 mg/kg): 2463 ng/g and 1494 ng/g | brain concentration Dose Normalized Mean (brain, 3 hr, IP 50 mg/kg): 0.075 | brain Concentration Individual (brain, 3 hr, IP 50 mg/kg, 3 animals, listed as NCGC00248435-03, 50 mg/kg): 1410 ng/g and 1152 ng/g | brain concentration Dose Normalized Mean (brain, 4 hr, IP 50 mg/kg): 0.017 | brain Concentration Individual (brain, 4 hr, IP 50 mg/kg, 3 animals, listed as NCGC00248435-03, 50 mg/kg): 234 ng/g and 585 ng/g and 179 ng/g | brain concentration Dose Normalized Mean (brain, 8 hr, IP 50 mg/kg): 0.001 | brain Concentration Individual (brain, 8 hr, IP 50 mg/kg, 3 animals, listed as NCGC00248435-03, 50 mg/kg): 13.5 ng/g | brain concentration Dose Normalized Mean (brain, 12 hr, IP 50 mg/kg): BQL (Below quantifiable limit of 1 ng/mL for NCGC00248435-03 in male C57BL/6 plasma and brain homogenate samples) | brain concentration Mean (brain, 12 hr, IP 50 mg/kg): BQL (Below quantifiable limit of 1 ng/mL for NCGC00248435-03 in male C57BL/6 plasma and brain homogenate samples) | brain Concentration Individual (brain, 12 hr, IP 50 mg/kg, 3 animals): BQL (Below quantifiable limit of 1 ng/mL for NCGC00248435-03 in male C57BL/6 plasma and brain homogenate samples) | brain concentration Dose Normalized Mean (brain, 24 hr, IP 50 mg/kg): BQL (Below quantifiable limit of 1 ng/mL for NCGC00248435-03 in male C57BL/6 plasma and brain homogenate samples) | brain concentration Mean (brain, 24 hr, IP 50 mg/kg): BQL (Below quantifiable limit of 1 ng/mL for NCGC00248435-03 in male C57BL/6 plasma and brain homogenate samples) | brain Concentration Individual (brain, 24 hr, IP 50 mg/kg, 3 animals): BQL (Below quantifiable limit of 1 ng/mL for NCGC00248435-03 in male C57BL/6 plasma and brain homogenate samples) | AUCbrain(AUClast) (brain, IP 50 mg/kg): 8458 ng·h/mL | concentration at 0.083 hr (brain, brain, 0.083 hr, 3 animals, read-out: brain Concentration Individual): 554 ng/g | concentration at 0.083 hr (brain, brain, 0.083 hr, read-out: brain concentration Mean): 472 ng/g and 1.18 µM | concentration at 0.25 hr (brain, brain, 0.25 hr, 3 animals, read-out: brain Concentration Individual): 853 ng/g | concentration at 0.25 hr (brain, brain, 0.25 hr, read-out: brain concentration Mean): 1090 ng/g and 2.72 µM | concentration at 0.5 hr (brain, brain, 0.5 hr, 3 animals, read-out: brain Concentration Individual): 5110 ng/g | concentration at 0.5 hr (brain, brain, 0.5 hr, read-out: brain concentration Mean): 4710 ng/g and 11.8 µM | concentration at 1 hr (brain, brain, 1 hr, 3 animals, read-out: brain Concentration Individual): 3650 ng/g | concentration at 1 hr (brain, brain, 1 hr, read-out: brain concentration Mean): 3040 ng/g and 7.59 µM | concentration at 2 hr (brain, brain, 2 hr, 3 animals, read-out: brain Concentration Individual): 1380 ng/g | concentration at 2 hr (brain, brain, 2 hr, read-out: brain concentration Mean): 1780 ng/g and 4.45 µM | concentration at 3 hr (brain, brain, 3 hr, 3 animals, read-out: brain Concentration Individual): 1930 ng/g | concentration at 3 hr (brain, brain, 3 hr, read-out: brain concentration Mean): 1500 ng/g and 3.75 µM | concentration at 4 hr (brain, brain, 4 hr, read-out: brain concentration Mean): 333 ng/g and 833 nM | concentration at 8 hr (brain, brain, 8 hr, 3 animals, read-out: brain Concentration Individual): 8.94 ng/g | concentration at 8 hr (brain, brain, 8 hr, read-out: brain concentration Mean): 12 ng/g and 30 nM | concentration at 0.083 hr (plasma, plasma, 0.083 hr, 3 animals, read-out: plasma Concentration Individual): 2090 ng/mL | concentration at 0.083 hr (plasma, plasma, 0.083 hr, read-out: plasma concentration Mean): 2620 ng/mL and 6.56 µM | concentration at 0.25 hr (plasma, plasma, 0.25 hr, 3 animals, read-out: plasma Concentration Individual): 6550 ng/mL | concentration at 0.25 hr (plasma, plasma, 0.25 hr, read-out: plasma concentration Mean): 5100 ng/mL and 12.8 µM | concentration at 0.5 hr (plasma, plasma, 0.5 hr, 3 animals, read-out: plasma Concentration Individual): 5960 ng/mL | concentration at 0.5 hr (plasma, plasma, 0.5 hr, read-out: plasma concentration Mean): 5790 ng/mL and 14.5 µM | concentration at 1 hr (plasma, plasma, 1 hr, 3 animals, read-out: plasma Concentration Individual): 4050 ng/mL | concentration at 1 hr (plasma, plasma, 1 hr, read-out: plasma concentration Mean): 3960 ng/mL and 9.91 µM | concentration at 2 hr (plasma, plasma, 2 hr, 3 animals, read-out: plasma Concentration Individual): 1130 ng/mL | concentration at 2 hr (plasma, plasma, 2 hr, read-out: plasma concentration Mean): 1020 ng/mL and 2.56 µM | concentration at 3 hr (plasma, plasma, 3 hr, 3 animals, read-out: plasma Concentration Individual): 321 ng/mL | concentration at 3 hr (plasma, plasma, 3 hr, read-out: plasma concentration Mean): 275 ng/mL and 688 nM | concentration at 4 hr (plasma, plasma, 4 hr, read-out: plasma concentration Mean): 100 ng/mL and 250 nM | concentration at 8 hr (plasma, plasma, 8 hr, 3 animals, read-out: plasma Concentration Individual): 1.83 ng/mL | concentration at 8 hr (plasma, plasma, 8 hr, read-out: plasma concentration Mean): 2.11 ng/mL and 5 nM | Kp (mouse, brain and plasma, IP 50 mg/kg, read-out: AUCbrain/AUCplasma): 1.05 | AUC(0-inf) (mouse, brain, IP 50 mg/kg): 8470 ng·h/mL | Cmax (mouse, brain, IP 50 mg/kg): 4710 ng/mL | Tmax (mouse, brain, IP 50 mg/kg): 30 min | half-life (mouse, brain, IP 50 mg/kg): 47.6 min | AUC(0-inf) (mouse, plasma, IP 50 mg/kg): 8080 ng·h/mL | AUC(0-t) (mouse, plasma, IP 50 mg/kg): 8080 ng·h/mL | Cmax (mouse, plasma, IP 50 mg/kg): 5790 ng/mL | Tmax (mouse, plasma, IP 50 mg/kg): 30 min | half-life (mouse, plasma, IP 50 mg/kg): 42.8 min | plasma concentration Dose Normalized Mean (plasma, 0.083 hr, IP 50 mg/kg): 0.131 | plasma Concentration Individual (plasma, 0.083 hr, IP 50 mg/kg, 3 animals, listed as NCGC00248435-03, 50 mg/kg): 3063 ng/mL and 2707 ng/mL | plasma concentration Dose Normalized Mean (plasma, 0.25 hr, IP 50 mg/kg): 0.255 | plasma Concentration Individual (plasma, 0.25 hr, IP 50 mg/kg, 3 animals, listed as NCGC00248435-03, 50 mg/kg): 4892 ng/mL and 3849 ng/mL | plasma concentration Dose Normalized Mean (plasma, 0.5 hr, IP 50 mg/kg): 0.290 | plasma Concentration Individual (plasma, 0.5 hr, IP 50 mg/kg, 3 animals, listed as NCGC00248435-03, 50 mg/kg): 6378 ng/mL and 5036 ng/mL | plasma concentration Dose Normalized Mean (plasma, 1 hr, IP 50 mg/kg): 0.198 | plasma Concentration Individual (plasma, 1 hr, IP 50 mg/kg, 3 animals, listed as NCGC00248435-03, 50 mg/kg): 4574 ng/mL and 3252 ng/mL | plasma concentration Dose Normalized Mean (plasma, 2 hr, IP 50 mg/kg): 0.051 | plasma Concentration Individual (plasma, 2 hr, IP 50 mg/kg, 3 animals, listed as NCGC00248435-03, 50 mg/kg): 1064 ng/mL and 870 ng/mL | plasma concentration Dose Normalized Mean (plasma, 3 hr, IP 50 mg/kg): 0.014 | plasma Concentration Individual (plasma, 3 hr, IP 50 mg/kg, 3 animals, listed as NCGC00248435-03, 50 mg/kg): 255 ng/mL and 249 ng/mL | plasma concentration Dose Normalized Mean (plasma, 4 hr, IP 50 mg/kg): 0.005 | plasma Concentration Individual (plasma, 4 hr, IP 50 mg/kg, 3 animals, listed as NCGC00248435-03, 50 mg/kg): 78.4 ng/mL and 148 ng/mL and 72.9 ng/mL | plasma concentration Dose Normalized Mean (plasma, 8 hr, IP 50 mg/kg): 0.000 | plasma Concentration Individual (plasma, 8 hr, IP 50 mg/kg, 3 animals, listed as NCGC00248435-03, 50 mg/kg): 2.94 ng/mL and 1.55 ng/mL | plasma concentration Dose Normalized Mean (plasma, 12 hr, IP 50 mg/kg): BQL (Below quantifiable limit of 1 ng/mL for NCGC00248435-03 in male C57BL/6 plasma and brain homogenate samples) | plasma concentration Mean (plasma, 12 hr, IP 50 mg/kg): BQL (Below quantifiable limit of 1 ng/mL for NCGC00248435-03 in male C57BL/6 plasma and brain homogenate samples) | plasma Concentration Individual (plasma, 12 hr, IP 50 mg/kg, 3 animals): BQL (Below quantifiable limit of 1 ng/mL for NCGC00248435-03 in male C57BL/6 plasma and brain homogenate samples) | plasma concentration Dose Normalized Mean (plasma, 24 hr, IP 50 mg/kg): BQL (Below quantifiable limit of 1 ng/mL for NCGC00248435-03 in male C57BL/6 plasma and brain homogenate samples) | plasma concentration Mean (plasma, 24 hr, IP 50 mg/kg): BQL (Below quantifiable limit of 1 ng/mL for NCGC00248435-03 in male C57BL/6 plasma and brain homogenate samples) | plasma Concentration Individual (plasma, 24 hr, IP 50 mg/kg, 3 animals): BQL (Below quantifiable limit of 1 ng/mL for NCGC00248435-03 in male C57BL/6 plasma and brain homogenate samples)
